Data on three compounds can be found in ChEMBL document CHEMBL5104178, “Nitroimidazopyrazinones with Oral Activity against Tuberculosis and Chagas Disease in Mouse Models of Infection” (J Med Chem, 2022).

The nature of series [1]: AUC(0 to 24 hrs) in CD-1 mouse at 20 mg/kg, po administered as DMSO/PEG400 formulation measured upto 24 hrs by LC-MS/MS analysis. The series is classed as ADME, organism-based. More on the design: dose 20 mg/kg, time < 24 hrs, route po. Particulars: in vivo.
Series [2] in a line: Half life in CD-1 mouse at 5 mg/kg, iv administered as DMSO/PEG400 formulation measured upto 24 hrs by LC-MS/MS analysis. The conditions noted are these: in vivo. In kind it is ADME, organism-based.
The nature of series [3]: Volume of distribution at steady state in CD-1 mouse at 5 mg/kg, iv administered as DMSO/PEG400 formulation measured upto 24 hrs by LC-MS/MS analysis. The series is classed as ADME, organism-based. Particulars: in vivo, read-out: Vdss.
A short description of series [4]: Tmax in CD-1 mouse at 20 mg/kg, po administered as DMSO/PEG400 formulation measured upto 24 hrs by LC-MS/MS analysis. In kind it is ADME, organism-based. Particulars: in vivo.
The test system of series [5] is Trypanosoma cruzi. In words: Antitrypanosomal activity against bioluminescent Trypanosoma cruzi CL Brener trypomastigotes infected in BALB/c mouse assessed as reduction in parasite burden at 50 mg/kg, po administered twice daily for 5 days starting from 14 days post infection and measured on 36 days post infection. The series is classed as functional. More on the design: scale not given: the % may be the effect or the level left. Particulars: time 22 day.

Series [6] in a line: Half life in CD-1 mouse at 20 mg/kg, po administered as DMSO/PEG400 formulation measured upto 24 hrs by LC-MS/MS analysis. The conditions noted are these: in vivo. In kind it is ADME, organism-based.
Series [7] in a line: Clearance in CD-1 mouse at 5 mg/kg, iv administered as DMSO/PEG400 formulation measured upto 24 hrs by LC-MS/MS analysis. In kind it is ADME, organism-based. Particulars: in vivo.
Series [8] is described as follows: Cmax in CD-1 mouse at 20 mg/kg, po administered as DMSO/PEG400 formulation measured upto 24 hrs by LC-MS/MS analysis. The series is classed as ADME, organism-based. More on the design: dose 20 mg/kg, time < 24 hrs, route po. Particulars: in vivo.
Series [9] in a line: Oral bioavailability in CD-1 mouse at 20 mg/kg administered as DMSO/PEG400 formulation measured upto 24 hrs by LC-MS/MS analysis. The series is classed as ADME, organism-based. Particulars: in vivo.
The subject of series [10] is Trypanosoma cruzi. In words: Antitrypanosomal activity against Trypanosoma cruzi Tulahuen amastigotes infected in mouse 3T3 cells assessed as reduction in parasite growth at Emax concentration incubated for 48 hrs by […] staining based analysis. In kind it is functional. On the set-up: scale not given: the % may be the effect or the level left.
Series [11] relates to Trypanosoma cruzi. In words: Antitrypanosomal activity against Trypanosoma cruzi Tulahuen amastigotes infected in mouse 3T3 cells assessed as inhibition of parasite growth incubated for 48 hrs by […] staining based analysis. In kind it is functional, organism-based. The conditions noted are these: for IC90: NIH3T3, time 48 hrs.
For series [12], the system named is Trypanosoma cruzi. In words: Antitrypanosomal activity against bioluminescent Trypanosoma cruzi CL Brener trypomastigotes infected in BALB/c mouse assessed as reduction in parasite burden at 100 mg/kg, po administered once daily for 5 days starting from 14 days post infection and measured on 36 days post infection. Particulars: time 22 day. More on the design: scale not given: the % may be the effect or the level left. The series is classed as functional.

The nature of series [13]: Selectivity index, ratio of CC50 for cytotoxicity against mouse 3T3 cells to IC50 for antitrypanosomal activity against Trypanosoma cruzi Tulahuen amastigotes infected in mouse 3T3 cells. The series is classed as toxicity, cell-based. The conditions noted are these: read-out: Ratio CC50/IC50.
Series [14] is described as follows: Cytotoxicity against mouse 3T3 cells. The series is classed as toxicity, cell-based. Particulars: NIH3T3 cells.
In series [15] the test system is Mycolicibacterium smegmatis. In words: Antimycobacterial activity against Mycobacterium smegmatis mc2155 ATCC 700084 assessed as bacterial growth inhibition incubated for 24 hrs under normoxic condition by resazurin microtiter assay. In kind it is functional.
Series [16] is described as follows: Toxicity in BALB/c mouse infected with Mycobacterium tuberculosis assessed as body weight loss at 12.5 to 50 mg/kg, po administered 5 days per week for 3 weeks starting from day 10 post infection. In kind it is organism-based. The conditions noted are these: in vivo, 120 h, dose 12.5-50 mg/kg, time 5 day.
Series [17] in a line: Plasma protein binding in human. In kind it is ADME, cell-free. Particulars: read-out: PPB (converted).
Series [18] concerns Mycobacterium tuberculosis. In words: Antimycobacterial activity against Mycobacterium tuberculosis H37Ra ATCC 25177 assessed as bacterial growth inhibition incubated for 6 days under normoxic condition by resazurin microtiter assay. In kind it is functional. The conditions noted are these: H37Ra ATCC 25177, 144 h, time 6 day.
Series [19] is described as follows: Toxicity in BALB/c mouse infected with Mycobacterium tuberculosis assessed as mortality at 12.5 to 50 mg/kg, po administered 5 days per week for 3 weeks starting from day 10 post infection. Particulars: in vivo, 504 h, dose 12.5-50 mg/kg. In kind it is organism-based.
Series [20] is described as follows: Metabolic stability in mouse microsomes assessed as compound remaining measured after 2 hrs. The series is classed as ADME, Microsome. Particulars: read-out: Stability.
Series [21] can be described thus: Solubility of compound in water by LC-UV analysis. Particulars: water; read-out: solubility. In kind it is physicochemical.
In series [22] the test system is Mycobacterium tuberculosis. In words: Antimycobacterial activity against Mycobacterium tuberculosis infected in BALB/c mouse assessed as log reduction in bacterial load in lung by measuring colony forming unit at 12.5 to 50 mg/kg, po administered 5 days per week for 3 weeks starting from day 10 post infection (reference value: 8.8 x 10^3 CFU). The series is classed as functional. Particulars: dose 12.5-50 mg/kg.

Series [23] concerns Mycobacterium avium. In words: Antimycobacterial activity against Mycobacterium avium ATCC 25291 assessed as bacterial growth inhibition incubated for 6 days under normoxic condition by resazurin microtiter assay. Particulars: ATCC 25291, 144 h, time 6 day. The series is classed as functional.
Series [24] in a line: Plasma protein binding in mouse. Particulars: read-out: PPB (converted). The series is classed as ADME, cell-free.
Series [25] can be described thus: Solubility of compound in water at 0.1 M HCl at pH 1 by LC-UV analysis. Particulars: 0.1 M HCl in water. In kind it is physicochemical.
The nature of series [26]: Solubility of compound in water at pH 7 by LC-UV analysis. In kind it is physicochemical.
The nature of series [27]: Stability in human plasma assessed as compound remaining measured after 2 hrs. The conditions noted are these: read-out: Stability. In kind it is ADME, cell-free.
Series [28] is described as follows: Stability in mouse plasma assessed as compound remaining measured after 2 hrs. The series is classed as ADME, cell-free. Particulars: read-out: Stability.
Series [29] is described as follows: Metabolic stability in human microsomes assessed as compound remaining measured after 2 hrs. In kind it is ADME, Microsome. The conditions noted are these: read-out: Stability.

≈ marks a conversion by molar mass, not a printed value.

Regarding `O=c1c2nc([N+](=O)[O-])cn2ccn1Cc1ccc(-c2cccnc2)cc1`, the AUC(0-t) at 24 h in series [1] turned out to be 9260 ng·h/mL. Also, the results for the half-life in series [2] and in series [6] were 1.5 h and 0.77 h, respectively. In addition, in [3], the Vd was 2.6 L/kg. Also, the Tmax in [4] was 0.67 h. In addition, the Activity in series [5] was 99.4%. Moreover, in series [7], the clearance is 22.9 mL/min/kg. Also, in series [8], the concentration peaked (Cmax) at 4500 ng/mL. The compound also had a bioavailability in [9] of 92%.
For the compound `O=C(Cn1ccnc1[N+](=O)[O-])NCc1ccccc1` [BENZNIDAZOLE], the results for the Activity in series [10] and in [12] were 100% and 99.3%, respectively. In addition, the IC50 in series [11] (NIH3T3, 48 h) was determined as 7.6 µM. In [11], the IC90 was 28 µM. Moreover, the selectivity ratio in series [13] was above 17. For the same compound, the CC50 in [14] is above 127 µM.
Take `O=c1c2nc([N+](=O)[O-])cn2ccn1Cc1ccc(OC(F)(F)F)cc1`: the minimum inhibitory concentration (MIC) in series [15] is above 32 µg/mL; in series [18], 0.031 µg/mL (≈ 0.0875 µM); in [23], above 32 µg/mL. Also, the figures for the Activity in series [10], in [16] and in series [19] were 100%, “Non-Toxic” and “Non-Toxic”, respectively. In addition, the fraction unbound in [17] and in [24] was below 0.01 throughout. The remaining at 2 h in [20] is above 99%; in series [27], 98%; in series [28], above 99%; in series [29], above 99%. Moreover, the AUC(0-t) at 24 h in series [1] came to 38900 ng·h/mL. Also, the half-life was 3.8 h in series [2] and 4.8 h in series [6]. The solubility in series [21], in [25] and in series [26] was below 1 µM throughout. In addition, the Vd in series [3] was 2.2 L/kg. Also, the “log(activity)” value in series [22] is 0.21. For the same compound, the IC90 in series [11] came to 0.72 µM. The Tmax in series [4] turned out to be 5.3 h. Also, the clearance in series [7] was determined as 6.36 mL/min/kg. The compound also displayed a Cmax in series [8] of 3300 ng/mL. The same compound displayed a CC50 in [14] above 73 µM. In series [9], this compound showed a bioavailability of 98%.
